In PubChem BioAssay (NCI) one finds TGI data, which are given here for 12 molecules.

Some test systems named below: SK-MEL-2 melanoma; EKVX NSCLC; NCI-H460 lung; KM12 colon; HL-60(TB) leukemia; HCT-15 colon; MDA-N; SK-MEL-28 melanoma; SR leukemia; UACC-62 melanoma; SF-295 CNS; SK-MEL-5 melanoma.
What all share (assay): growth of human tumour cells (NCI), 48 h

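Cells were grown in 96-well plates and exposed to each compound for 48 hours at five concentrations; endpoints were interpolated linearly between bracketing concentrations, or set to the highest concentration if not reached. The concentration for full growth arrest is given as TGI.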 Where a SMILES comes first, the peptide text is derived from it. The star is where a group is joined. Cbz = O=C(OCc1ccccc1)* Bounds are passed on as bounds.

For `O=C1CCSCCC(=O)Nc2ccccc2N1`, the TGI in the assay with SK-MEL-2 melanoma, in the assay on EKVX NSCLC, with NCI-H460 lung, in the assay on KM12 colon, in the assay with HL-60(TB) leukemia and in the assay with HCT-15 colon was more than 100 µM in each case. Besides, the TGI in the assay with MDA-N, in the assay on SK-MEL-28 melanoma, with SR leukemia, in the assay with UACC-62 melanoma, in the assay with SF-295 CNS and in the assay on SK-MEL-5 melanoma was more than 100 µM each time.

In the case of `C=CC1(CC[C@]2(c3ccc(OC)c(OC)c3)C=[N+]([O-])O[C@H](O[C@@H]3CCCC[C@H]3C(C)(C)c3ccccc3)C2)OCC(C)(C)CO1`, the TGI is 28.7 µM in the assay on SK-MEL-2 melanoma; 45.5 µM in the assay with EKVX NSCLC; more than 59.8 µM in the assay on NCI-H460 lung; 41.4 µM with KM12 colon; 4.81 µM with HL-60(TB) leukemia; more than 48.5 µM with HCT-15 colon. Further, the TGI was 24.7 µM in the assay with MDA-N; 53.8 µM with SK-MEL-28 melanoma; more than 38.9 µM with SR leukemia; 33.9 µM with UACC-62 melanoma; more than 51.2 µM in the assay on SF-295 CNS; 28.3 µM in the assay on SK-MEL-5 melanoma.

Take `Cc1c2ccc3ccccc3c2c[n+]2ccccc12`: the TGI is 31 µM in the assay on SK-MEL-2 melanoma; more than 44.1 µM with EKVX NSCLC; 40.2 µM with NCI-H460 lung; 12 µM with KM12 colon; more than 75.6 µM with HL-60(TB) leukemia; more than 100 µM with HCT-15 colon. Further, the TGI in the assay with MDA-N worked out at 19.8 µM; with SK-MEL-28 melanoma, 28.7 µM; in the assay on SR leukemia, 53.5 µM; with UACC-62 melanoma, 33.9 µM; in the assay with SF-295 CNS, 24.8 µM; in the assay with SK-MEL-5 melanoma, 21.9 µM.

On to `NCCCNCCCCN1CCOC1=O`, for which the TGI in the assay on SK-MEL-2 melanoma, in the assay with EKVX NSCLC, with NCI-H460 lung, in the assay on KM12 colon, in the assay with HL-60(TB) leukemia and in the assay with HCT-15 colon was more than 100 µM throughout. The TGI in the assay on MDA-N, in the assay with SK-MEL-28 melanoma, in the assay with SR leukemia, in the assay on UACC-62 melanoma, in the assay on SF-295 CNS and with SK-MEL-5 melanoma was more than 100 µM each time.

For the molecule `S=C1NCCN1C(=S)Nc1ccccc1`, the TGI with SK-MEL-2 melanoma, in the assay with EKVX NSCLC, in the assay on NCI-H460 lung, with KM12 colon, in the assay on HL-60(TB) leukemia and in the assay with HCT-15 colon was more than 100 µM in each case. For the same molecule, the TGI in the assay on MDA-N, in the assay with SK-MEL-28 melanoma, in the assay with SR leukemia, in the assay on UACC-62 melanoma, with SF-295 CNS and with SK-MEL-5 melanoma was more than 100 µM each time.

Regarding `OC(C/C=N/N=C/CC(O)(C(F)(F)Cl)C(F)(F)Cl)(C(F)(F)Cl)C(F)(F)Cl`, the TGI in the assay on SK-MEL-2 melanoma, in the assay with EKVX NSCLC, in the assay on NCI-H460 lung, in the assay on KM12 colon, in the assay with HL-60(TB) leukemia and with HCT-15 colon was more than 10 µM in each case. Moreover, the TGI with MDA-N, in the assay on SK-MEL-28 melanoma, with SR leukemia, in the assay with UACC-62 melanoma, in the assay on SF-295 CNS and in the assay on SK-MEL-5 melanoma was more than 10 µM in each case.

On to `CCOC(=O)CCC(NC(=O)C(Cc1ccccc1)NC(=O)OCc1ccccc1)C(=O)OCC` (stereo not drawn) (Cbz-Phe-Glu(OEt)-OEt; configuration not given here), for which the TGI amounted to 48 µM with SK-MEL-2 melanoma; 39.1 µM in the assay on EKVX NSCLC; 38.5 µM with NCI-H460 lung; 32.6 µM with KM12 colon; 41.2 µM with HL-60(TB) leukemia; 41.6 µM in the assay with HCT-15 colon. Besides, the TGI in the assay with MDA-N was 32.6 µM; with SK-MEL-28 melanoma, 33.2 µM; in the assay on SR leukemia, more than 68.8 µM; in the assay on UACC-62 melanoma, 32.5 µM; in the assay with SF-295 CNS it was 34.1 µM; in the assay with SK-MEL-5 melanoma, 28.8 µM.

Consider `c1ccc2c3[nH]c(c2c1)=Nc1ccc(cc1)-c1nc2ccc(cc2o1)N=c1[nH]c(c2ccccc12)=Nc1ccc2nc(oc2c1)-c1ccc(cc1)N=3`, for which the TGI with SK-MEL-2 melanoma was more than 100 µM; with EKVX NSCLC, more than 100 µM; in the assay on NCI-H460 lung, 20.5 µM; in the assay on KM12 colon it was more than 100 µM; with HL-60(TB) leukemia it was 12.4 µM; in the assay with HCT-15 colon it was 25.3 µM. Besides, the TGI with MDA-N is more than 100 µM; in the assay with SK-MEL-28 melanoma, more than 100 µM; in the assay with SR leukemia it was 71.6 µM; with UACC-62 melanoma it was more than 100 µM; with SF-295 CNS, more than 100 µM; with SK-MEL-5 melanoma, 29.4 µM.

Take `COC(=O)[C@@H](NC(=O)N(Cc1ccccc1)C[C@H](CC(C)C)NC(=O)[C@@H](NC(=O)OC(C)(C)C)C(C)C)C(C)C`: the TGI with SK-MEL-2 melanoma, with EKVX NSCLC, in the assay on NCI-H460 lung, with KM12 colon, in the assay on HL-60(TB) leukemia and with HCT-15 colon was more than 100 µM throughout. For the same molecule, the TGI in the assay on MDA-N, in the assay on SK-MEL-28 melanoma, with SR leukemia, in the assay on UACC-62 melanoma, in the assay with SF-295 CNS and in the assay on SK-MEL-5 melanoma was more than 100 µM each time.

In the case of `Cc1ccnc2c1C(=O)C1=C(OC(C)(C)CC1O)C2=O` (centres undefined), the TGI in the assay with SK-MEL-2 melanoma was 8.83 µM; with EKVX NSCLC, 18.5 µM; in the assay on NCI-H460 lung, 8.97 µM; in the assay with KM12 colon, 15 µM; in the assay on HL-60(TB) leukemia, more than 24 µM; in the assay with HCT-15 colon, 9.97 µM. Besides, the TGI turned out to be 2.9 µM in the assay with MDA-N; 5.16 µM in the assay on SK-MEL-28 melanoma; 15.4 µM in the assay with SR leukemia; 3.25 µM with UACC-62 melanoma; 8.79 µM in the assay with SF-295 CNS; 2.6 µM in the assay on SK-MEL-5 melanoma.

For the molecule `CC(=O)SC(C[N+](=O)[O-])c1ccc2c(c1)OCO2` (centres undefined), the TGI in the assay with SK-MEL-2 melanoma was 14.8 µM; in the assay with EKVX NSCLC it was 52.5 µM; in the assay with NCI-H460 lung, 26.2 µM; in the assay with KM12 colon, 12.7 µM; in the assay on HL-60(TB) leukemia, 4.67 µM; with HCT-15 colon, 11.1 µM. Moreover, the TGI stood at 4.64 µM with MDA-N; 9.78 µM in the assay with SK-MEL-28 melanoma; 7.27 µM in the assay with SR leukemia; 11.3 µM in the assay on UACC-62 melanoma; 26.1 µM in the assay with SF-295 CNS; 19.9 µM with SK-MEL-5 melanoma.

As for `Cc1[nH]n(-c2nc(O)c(-c3ccccc3)c(=O)[nH]2)c(=O)c1CCO`, the TGI in the assay on SK-MEL-2 melanoma, in the assay on EKVX NSCLC, in the assay with NCI-H460 lung, in the assay with KM12 colon, in the assay on HL-60(TB) leukemia and with HCT-15 colon was more than 100 µM in each case. The TGI in the assay on MDA-N, in the assay with SK-MEL-28 melanoma, in the assay with SR leukemia, with UACC-62 melanoma, with SF-295 CNS and in the assay on SK-MEL-5 melanoma was more than 100 µM in each case.
